Here are results for seven compounds from patent publication US10981911B2, “Imidazopyrrolopyridine as inhibitors of the JAK family of kinases” (Janssen Pharmaceutica NV, priority 2016, dated 2021).

Series [1] is described as follows: In vivo intracolonic (i.c.) dosing: plasma and colon tissue concentrations (Protocol 3). Further details: species or system female C57BL/6 mice. The settings on record: mice; for concentration at 4 h: colon, read-out: Colon Concentration After i.c. Dosing, Mean. From the text: Plasma and colon concentration results were obtained by following Protocol 1 using venipuncture of dorsal metatarsal vein bleed for Compounds (B), (C), and Examples 10 and 74. Plasma and colon concentration results were obtained by following Protocol 2 using retro-orbital bleed for Compounds (A), and Examples 1, and 3-5 and Protocol 2 using venipuncture of the dorsal metatarsal vein for Examples 2, 22, 34, 38, 55, and 85. Plasma and colon concentration results were obtained by following Protocol 3 for Examples 1, 3 and 4. These protocols are described below under the heading In vivo Studies.
Intracolonic (IC) dose group: Following anesthesia with isoflurane by inhalation, three non-fasted female C57BL/6 mice were administered the compound intracolonically through a small incision in the abdominal wall using a syringe and needle at a dose of 5 mg/kg as a solution in 20% HPβCD at a dose volume of 1 mL/kg. Blood samples were collected at 0.5, 2, and 4 h post dose via retro-orbital bleed. Blood samples were collected into tubes containing anticoagulant (Heparin-Na) and placed on wet ice. The plasma fraction was separated by centrifugation and frozen at −20° C. for up to 4 h and −80° C. after 4 h unless analyzed shortly after sample collection. Colon samples were collected at 4 h post dose. From 2 cm below the cecum, a 4-cm sample of the colon was dissected, cut open on the longitudinal axis, and the solid contents removed by flushing with 2 mL of saline. The colon was further washed by putting it in 5 mL of saline and shaken for 5 seconds. The colon sample was then patted dry, weighed, and homogenized as 1 part tissue (g) to 4 parts HPLC grade water (mL). Concentrations of the compound in plasma and colon homogenate were determined using a qualified liquid chromatography-triple quadrupole mass spectrometry (LC-MS/MS) method. This protocol was used to evaluate IC dosing of the following test compounds: Examples 1, 3, and 4.

The next series addresses Tyk2-JH1JH2 (Homo sapiens (Human), UniProt P29597, C1142A/C936A). Put plainly: Enzymatic inhibition assay (RapidFire HTMS), Tyk2. Type of series: biochemical. The conditions noted are these: 50 μM ATP, 200 μM substrate. In a few lines:
(§1)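 Quenched with 0.5% TFA plus internal-standard peptide; phosphorylated product quantified by RapidFire C4 SPE–ESI-MS, 11-point 1:3 or 1:4 dilutions in duplicate.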

In another series the target is JAK2-JH1JH2 (Homo sapiens (Human), UniProt O60674). Briefly: Enzymatic inhibition assay (RapidFire HTMS), JAK2. Type of series: biochemical. The conditions noted are these: 30 μM ATP, 40 μM substrate. In a few lines: as §1
The target in a further series is JAK1-JH1JH2 (Homo sapiens (Human), UniProt P23458). Put plainly: Enzymatic inhibition assay (RapidFire HTMS), JAK1. Type of series: biochemical. The conditions noted are these: 12.5 μM ATP, 200 μM substrate; read-out: JAK1-JH2JH1 IC50. In a few lines: as §1
Where [2] appears, read: female, C57BL/6, mouse, other: intracolonic (i.c.), 5 mg/kg i.c.
Setting [3] is: female, C57BL/6, mouse, plasma, other: intracolonic (i.c.), 5 mg/kg i.c., read-out: Plasma Concentration After i.c. Dosing, Mean.

JAK2-JH1JH2, sequence (O60674 532-1132): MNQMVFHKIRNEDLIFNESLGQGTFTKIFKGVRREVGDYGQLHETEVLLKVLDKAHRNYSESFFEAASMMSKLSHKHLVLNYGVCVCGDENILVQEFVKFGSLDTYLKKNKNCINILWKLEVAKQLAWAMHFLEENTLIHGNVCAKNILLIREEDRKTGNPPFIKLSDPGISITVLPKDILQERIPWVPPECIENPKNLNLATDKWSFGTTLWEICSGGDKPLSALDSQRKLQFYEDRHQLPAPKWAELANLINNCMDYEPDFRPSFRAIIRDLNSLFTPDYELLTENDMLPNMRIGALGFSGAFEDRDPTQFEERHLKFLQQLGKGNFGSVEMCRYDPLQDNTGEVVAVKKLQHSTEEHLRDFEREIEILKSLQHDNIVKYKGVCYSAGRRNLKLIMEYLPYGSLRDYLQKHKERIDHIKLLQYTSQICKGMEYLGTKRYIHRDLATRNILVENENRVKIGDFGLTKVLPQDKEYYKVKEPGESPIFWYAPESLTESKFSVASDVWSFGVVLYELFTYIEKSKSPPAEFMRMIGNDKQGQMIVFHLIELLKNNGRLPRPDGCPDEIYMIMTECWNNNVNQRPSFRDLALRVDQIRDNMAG
JAK1-JH1JH2, sequence (P23458 574-1154): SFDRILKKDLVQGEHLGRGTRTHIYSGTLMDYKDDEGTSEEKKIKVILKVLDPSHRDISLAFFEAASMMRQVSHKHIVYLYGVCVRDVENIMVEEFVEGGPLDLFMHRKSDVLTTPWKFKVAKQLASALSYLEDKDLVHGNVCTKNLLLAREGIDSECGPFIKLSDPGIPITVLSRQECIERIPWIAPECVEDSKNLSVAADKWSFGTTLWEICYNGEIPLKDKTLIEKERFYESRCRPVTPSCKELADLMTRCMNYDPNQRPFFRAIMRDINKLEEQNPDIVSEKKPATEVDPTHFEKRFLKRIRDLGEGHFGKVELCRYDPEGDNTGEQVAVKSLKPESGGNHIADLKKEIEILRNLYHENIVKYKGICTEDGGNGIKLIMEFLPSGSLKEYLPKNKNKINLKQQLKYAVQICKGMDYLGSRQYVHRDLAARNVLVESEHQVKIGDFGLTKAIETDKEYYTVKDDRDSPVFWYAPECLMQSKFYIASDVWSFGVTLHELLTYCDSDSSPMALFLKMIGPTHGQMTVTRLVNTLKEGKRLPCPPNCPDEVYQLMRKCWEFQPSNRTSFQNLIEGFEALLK
Tyk2-JH1JH2, sequence (P29597 580-1182 C936A/C1142A): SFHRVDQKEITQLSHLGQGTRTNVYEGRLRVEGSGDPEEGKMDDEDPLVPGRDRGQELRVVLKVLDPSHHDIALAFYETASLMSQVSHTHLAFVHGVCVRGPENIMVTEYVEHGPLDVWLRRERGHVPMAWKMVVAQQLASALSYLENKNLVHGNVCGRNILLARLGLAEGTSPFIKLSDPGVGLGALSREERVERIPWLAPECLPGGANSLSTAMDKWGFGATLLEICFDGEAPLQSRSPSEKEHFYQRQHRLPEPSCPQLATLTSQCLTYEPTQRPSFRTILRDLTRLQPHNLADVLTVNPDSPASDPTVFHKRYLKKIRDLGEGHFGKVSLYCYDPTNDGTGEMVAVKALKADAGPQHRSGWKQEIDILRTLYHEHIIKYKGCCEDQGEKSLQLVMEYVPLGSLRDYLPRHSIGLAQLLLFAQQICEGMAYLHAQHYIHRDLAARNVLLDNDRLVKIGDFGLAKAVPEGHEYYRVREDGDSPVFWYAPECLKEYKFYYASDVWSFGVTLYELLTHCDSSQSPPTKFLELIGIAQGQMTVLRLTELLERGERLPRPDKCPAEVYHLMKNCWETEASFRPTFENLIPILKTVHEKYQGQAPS

For the compound `CC(C)(O)CNC(=O)Cc1nc2cnc3[nH]ccc3c2n1[C@H]1CC[C@H](CC#N)CC1` [Ex. 1, 2-(1-((1r,4r)-4-(Cyanomethyl)cyclohexyl)-1,6-dihydroimidazo[4,5-d]pyrrolo[2,3-b]pyridin-2-yl)-N-(2-hydroxy-2-methylpropyl)acetamide], the concentration at 4 h in series [1] (setting [2]) came to 681 ng/g. Also, the concentration at 0.5 h in series [1] (setting [3]) came out at 2.5 ng/mL. In series [1], the “systemic exposures after i.c. dosing” value was “low systemic exposures”. The half-maximal inhibitory concentration (IC50) stood at 6.9 nM on Tyk2-JH1JH2, 8.2 nM on JAK2-JH1JH2 and 0.3 nM at JAK1-JH1JH2.

Turning to `N#CC[C@H]1CC[C@H](n2c(CC(=O)NCC3CC3)nc3cnc4[nH]ccc4c32)CC1` [Ex. 3, 2-(1-((1r,4r)-4-(Cyanomethyl)cyclohexyl)-1,6-dihydroimidazo[4,5-d]pyrrolo[2,3-b]pyridin-2-yl)-N-(cyclopropylmethyl)acetamide], in series [1] (setting [2]), the concentration at 4 h stood at 228 ng/g. In addition, the concentration at 0.5 h in series [1] (setting [3]) amounted to 1.5 ng/mL. In series [1], the “systemic exposures after i.c. dosing” value was “low systemic exposures”.

Consider `N#CCCNC(=O)Cc1nc2cnc3[nH]ccc3c2n1[C@H]1CC[C@H](CC#N)CC1` [Ex. 4, N-(2-Cyanoethyl)-2-(1-((1r,4r)-4-(cyanomethyl)cyclohexyl)-1,6-dihydroimidazo[4,5-d]pyrrolo[2,3-b]pyridin-2-yl)acetamide], for which the concentration at 4 h in series [1] (setting [2]) worked out at 26.1 ng/g. Further, in series [1] (setting [3]), the concentration at 0.5 h worked out at 3.8 ng/mL. Also, the concentration at 2 h in series [1] (female, C57BL/6, mouse, plasma, other: intracolonic (i.c.), 5 mg/kg i.c., Time = 2 h, read-out: Plasma Concentration After i.c. Dosing, Mean) amounted to 2.5 ng/mL. Moreover, the “systemic exposures after i.c. dosing” value in series [1] is given as “low systemic exposures”.

With `CC(C)(C#N)CNC(=O)Cc1nc2cnc3[nH]ccc3c2n1[C@H]1CC[C@H](CC#N)CC1` [Ex. 22, N-(2-Cyano-2-methylpropyl)-2-(1-((1r,4r)-4-(cyanomethyl)cyclohexyl)-1,6-dihydroimidazo[4,5-d]pyrrolo[2,3-b]pyridin-2-yl)acetamide], the IC50 against Tyk2-JH1JH2 amounted to 4.1 nM; at JAK2-JH1JH2 it was 5.4 nM; on JAK1-JH1JH2, 0.1 nM.

For the compound `N#CC[C@H]1CC[C@H](n2c(CC(=O)NCC3(O)CCC3)nc3cnc4[nH]ccc4c32)CC1` [Ex. 34, 2-(1-((1r,4r)-4-(Cyanomethyl)cyclohexyl)-1,6-dihydroimidazo[4,5-d]pyrrolo[2,3-b]pyridin-2-yl)-N-((1-hydroxycyclobutyl)methyl)acetamide], the 50% inhibitory concentration (IC50) at Tyk2-JH1JH2 came to 3.1 nM; on JAK2-JH1JH2 it was 3.1 nM; on JAK1-JH1JH2 it was 0.2 nM.

On to `N#CCC12CCC(NC(=O)Cc3nc4cnc5[nH]ccc5c4n3[C@H]3CC[C@H](CC#N)CC3)(CC1)C2` [Ex. 55, N-(4-(Cyanomethyl)bicyclo[2.2.1]heptan-1-yl)-2-(1-((1r,4r)-4-(cyanomethyl)cyclohexyl)-1,6-dihydroimidazo[4,5-d]pyrrolo[2,3-b]pyridin-2-yl)acetamide], for which the IC50 at Tyk2-JH1JH2 is 4.7 nM; against JAK2-JH1JH2, 2.9 nM; on JAK1-JH1JH2 it was 0.2 nM.

Take `N#CC[C@H]1CC[C@H](n2c(CC(=O)NCC3(O)CC3)nc3cnc4[nH]ccc4c32)CC1` [Ex. 85, 2-(1-((1r,4r)-4-(Cyanomethyl)cyclohexyl)-1,6-dihydroimidazo[4,5-d]pyrrolo[2,3-b]pyridin-2-yl)-N-((1-hydroxycyclopropyl)methyl)acetamide]: the results for the IC50 at Tyk2-JH1JH2, at JAK2-JH1JH2 and on JAK1-JH1JH2 were 5.4 nM, 6.2 nM and 0.4 nM, respectively.

Usually IC50 stands for the concentration that inhibits the measured activity by half.
